Measurements as given in BigSolDB 2.1.

N#Cc1cccc([N+](=O)[O-])c1C#N
solubility (mole fraction)
Conditions	278.15 K	283.15 K	288.15 K	293.15 K	298.15 K	303.15 K	308.15 K	313.15 K	318.15 K	323.15 K
in NMP	0.0839	0.0936	0.104	0.115	0.128	0.141	0.155	0.17	0.186	0.203
in acetone	0.0204	0.0242	0.0286	0.0338	0.0399	0.0472	0.0558	0.0661	0.0783	0.0929
in ethanol	0.000924	0.00111	0.00134	0.0016	0.00194	0.00232	0.00273	0.00325	0.00382	0.00448
in ethyl acetate	0.0178	0.0208	0.0242	0.0281	0.0324	0.0372	0.0426	0.0487	0.0555	0.063
in ethylene glycol	0.0131	0.0158	0.019	0.0226	0.0268	0.0317	0.0373	0.0438	0.0512	0.0596
in isobutanol	0.000381	0.000424	0.000477	0.000552	0.000643	0.000765	0.000921	0.00111	0.00135	0.00169
in isopropanol	0.000561	0.000681	0.000837	0.00103	0.00125	0.00151	0.00179	0.00216	0.00257	0.00305
in methanol	0.00203	0.0024	0.00283	0.00332	0.00388	0.00452	0.00523	0.00597	0.00695	0.00796
in n-butanol	0.000411	0.000478	0.000569	0.000686	0.000836	0.001	0.0012	0.00143	0.00171	0.00207
in n-propanol	0.000735	0.000899	0.00109	0.00132	0.00159	0.00189	0.00226	0.00268	0.00317	0.00373
in toluene	0.000946	0.00116	0.00142	0.00173	0.0021	0.00254	0.00305	0.00367	0.00437	0.00521
in water	5.32e-05	6.38e-05	7.98e-05	9.78e-05	0.00012	0.000146	0.000176	0.00021	0.00025	0.000298
